According to paper PMC10673615, “Quercetin-1,2,3-Triazole Hybrids as Multifunctional Anti-Alzheimer’s Agents” (Molecules, 2023):

What was measured:
MCF-7 cells [1] = test: in vitro
Method: (§1) Given the importance of oxidative stress-induced apoptosis of neuronal cells in AD, we present here a study to investigate the effect of quercetin-1,2,3-triazole hybrids on H2O2-induced oxidative damage in cultured MCF-7 cells, used as a human cell model. Viability was assessed with the WST-1 test in the absence and in the presence of an oxidative stressor (10^−4 M H2O2).
(§2) MCF-7 (Human breast adenocarcinoma (MERCK—# 86012803-DNA-5UG), Database Name: ECACC collection, Accession Numbers: 86012803) was the cell line elected as a cell injury model for the study of the potential protective effect of the butyrylcholinesterase inhibitors (hybrids) against hydrogen peroxide-induced oxidative stress. Cytotoxicity of the hybrids was also evaluated.
(§3) The compounds to be tested were firstly dissolved in dimethyl sulfoxide (DMSO) at a concentration of 4 × 10^−2 M. They were then diluted in cell growth media (EMEM) (supplemented with FBS 10%) with 0.25% DMSO to obtain solutions between 6.25 and 50.00 µM.
(§4) Eagle’s Minimum Essentia Medium (EMEM), including 10% fetal bovine serum (FBS), 100 IU/mL penicillin, and 100 μg/mL streptomycin, was used to culture MCF-7 cells at 37 °C in 5% CO2 atmosphere incubator with media replenished every 2 days. A total of 5 × 10^3 cells were cultured in 96-well plates and incubated for 72 h prior to stimulus application.
(§5) The culture medium was subsequently replaced with different final concentrations (6.25–50 μM) of the compounds to be tested. Negative controls were prepared, incubating cells in culture media.
(§6) Parallel experiments were performed for cytotoxicity assessment and for protective effect against hydrogen peroxide-induced oxidative stress evaluation. First, 10 μL of PBS was added in the designated wells; second, 10 μL of H2O2 (reaching a final concentration of 100 µM) was added. Following a 2 h incubation period at 37 °C in 5% CO2 atmosphere incubator, cellular viability was measured by adding WST-1 dehydrogenases substrate and incubating for 1 h, and the amount of formazan dye produced was evaluated by measuring the absorbance at 440 nm.

MCF-7 cells [2] = test: Protective assay against hydrogen peroxide-induced oxidative stress in MCF-7 cells; assay type: cell-based, Human; conditions: 100 µM H2O2, 2 h
Method: as §1, §2, §5, §6

eqBuChE [3] = biological target: T1, eqBuChE (Equus caballus, UniProt P81908); test: Ellman cholinesterase inhibitory assay, eqBuChE (screening and IC50); assay type: biochemical; conditions: for inhibition at 100 µM: compound 100 µM, substrate 3 mM; for IC50: concentration range 1.2-300 µM, BTCI 0.8 mM, read-out: IC50 values for eqBuChE
T1 construct: equine serum butyrylcholinesterase (eqBuChE); purchased Sigma-Aldrich (lyophilized powder, 10.9 U/mg); host or cells: equine serum
Method: (§7) Firstly, the inhibitory activity of the quercetin-1,2,3-triazole hybrids I–IV was screened in vitro on eeAChE and eqBuChE at a concentration of 100 μM (these enzymes are considered as models of the human isoform). The ChE inhibitory activity of all compounds was evaluated using the method of Ellman.
(§8) The inhibitory activities of title compounds against commercially available cholinesterases (eeAChE) (Electrophorus electricus, Type V-S), eqBuChE (equine serum), were conducted using minor modifications of Ellman’s assay. Nine different concentrations ([…], 37.5, 75, 150, and 300 μM in H2O:DMSO (50:50)) of each test compound were used to determine the enzyme-inhibition activity. Briefly, 55 μL of 50 mM Tris-HCl buffer at pH 8, 25 μL of eqBuChE (0.03 U/mL), 20 μL of the test or standard compounds, and 125 μL of DTNB (0.8 mM) were incubated in 96-well plates at 37 °C for 15 min. Further, 25 μL of the substrate, BTCI (0.8 mM), was added, and the solution was incubated for additional 15 min. Finally, the absorbance was measured at 412 nm wavelength using a Microplate Spectrophotometry (TriStar® S LB 942 model instrument). The IC50 values were determined from the absorbance obtained for various concentrations of the test and the standard compounds. All determinations were performed in triplicate.
(§9) To determine the % of inhibition ([I] = 100 μM), the substrate concentration (acetylthiocholine iodide for AChE; S-butyrylthiocholine iodide for BuChE) was fixed at 3 mM.

eqBuChE [4] = biological target: T1, eqBuChE; test: Kinetic study for the inhibition of eqBuChE (Lineweaver-Burk); assay type: biochemical; conditions: for Inhibition type / Ki: Lineweaver-Burk; for Ki: read-out: Ki (inhibitory constant)
Description: The interaction with the active center of the enzyme thus seems to be favored by the presence of polar groups. Hybrid IIf presented the smaller Ki (Table 3), binding to the enzyme with the higher affinity, which can be relevant for pharmacologic applications in the future.
Lineweaver–Burk plot (1/V vs. 1/[BTCI]) was used for determining the inhibition constants (Ki’s) and the mechanism of action.

Artemia salina = Artemia salina lethal toxicity assay; assay type: in vivo; conditions: for concentrations without toxicity: Artemia salina
Method: (§10) Artemia salina was used for in vivo general toxicity assessment of the promising hybrids IVb, IVd, and IIf; the results are shown in Table 4 and Figure 7. K2Cr2O7 was used as a control. Hybrid IVd presented the lowest toxicity.
(§11) The ARTOXKIT M protocol was used. The percentage of dyed nauplii of Artemia salina, grown in the presence of variable concentrations of the inhibitor compounds, was measured to determine the LC50 values. A test with K2Cr2O7 was used for quality control.

[5] = Artemia salina lethal toxicity assay; assay type: in vivo; conditions: Artemia salina, in vivo, other: grown in the presence of the compound, Artemia salina nauplii
Method: as §10, §11

[6] = DPPH radical scavenging antioxidant assay
Method: To assess the antioxidant activity of hybrids IVa–e, IIf and quercetin, the 2,2-diphenyl-1-[…] (DPPH) radical scavenging colorimetric method was used, which is one of the most widely used methods for determining antioxidant activity. In this method, antioxidants react with DPPH (which has a strong violet color) and convert it into yellow diphenylpicrylhydrazine. Compounds were assayed in the range of concentrations from 3 to 200 μg/mL. Ascorbic acid was used as positive control. […] Another piece of evidence is the similarity between the % inhibition values of hybrids IVa,b and IVd,e and quercetin.
The colorimetric DPPH assay was carried out as described in [33]. […] In brief, 30 μL of a test compound (in MeOH) was mixed with 200 μL of DPPH (100 μM in methanol) in a 96-well plate in triplicate. After 30 min incubation at room temperature in the absence of light, the absorbances were measured at 517 nm using Microplate Spectrophotometry (TriStar® S LB 942 model instrument). The free radical scavenging activity results are expressed as a percentage of DPPH inhibition according to the following formula:
% of Inhibition = 100[(A(Blank) − A(sample))/A(blank)], where A(blank) consists of methanol (30 μL) mixed with DPPH (200 μL) absorbance, and A(sample) is the absorbance value for the added sample concentration compound mixed with DPPH. Ascorbic acid was used as a positive control.

eeAChE = biological target: T2, eeAChE (Electrophorus electricus, UniProt O42275); test: Ellman cholinesterase inhibitory assay, eeAChE screening; assay type: biochemical; conditions: compound 100 µM; substrate 3 mM
T2 construct: catalogue number not given
Method: as §7, §8, §9

[7] = test system: REM-138 cell line (canine breast cancer); design: method as in doi:10.1055/s-0040-1719928; conditions: REM cells; 72 h incubation; cited from earlier work
in vitro = conditions: human
Method: as §1, §2, §3, §4, §5, §6

T1 sequence (P81908 whole entry): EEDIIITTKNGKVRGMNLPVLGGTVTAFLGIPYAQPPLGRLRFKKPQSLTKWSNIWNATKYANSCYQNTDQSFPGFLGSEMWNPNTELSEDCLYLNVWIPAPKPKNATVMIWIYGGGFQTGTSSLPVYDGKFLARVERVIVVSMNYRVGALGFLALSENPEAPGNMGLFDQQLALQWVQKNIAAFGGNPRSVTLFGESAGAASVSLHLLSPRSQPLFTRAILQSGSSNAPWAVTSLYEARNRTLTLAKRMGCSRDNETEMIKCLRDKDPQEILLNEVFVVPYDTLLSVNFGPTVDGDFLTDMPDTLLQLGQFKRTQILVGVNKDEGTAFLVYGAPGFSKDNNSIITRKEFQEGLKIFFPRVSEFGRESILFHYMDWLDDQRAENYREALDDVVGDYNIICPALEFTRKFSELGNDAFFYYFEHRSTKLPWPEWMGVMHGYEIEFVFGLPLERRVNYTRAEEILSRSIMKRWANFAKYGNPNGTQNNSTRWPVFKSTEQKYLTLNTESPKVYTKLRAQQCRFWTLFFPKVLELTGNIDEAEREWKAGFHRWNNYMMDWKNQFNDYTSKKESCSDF
T2 sequence (O42275 24-633): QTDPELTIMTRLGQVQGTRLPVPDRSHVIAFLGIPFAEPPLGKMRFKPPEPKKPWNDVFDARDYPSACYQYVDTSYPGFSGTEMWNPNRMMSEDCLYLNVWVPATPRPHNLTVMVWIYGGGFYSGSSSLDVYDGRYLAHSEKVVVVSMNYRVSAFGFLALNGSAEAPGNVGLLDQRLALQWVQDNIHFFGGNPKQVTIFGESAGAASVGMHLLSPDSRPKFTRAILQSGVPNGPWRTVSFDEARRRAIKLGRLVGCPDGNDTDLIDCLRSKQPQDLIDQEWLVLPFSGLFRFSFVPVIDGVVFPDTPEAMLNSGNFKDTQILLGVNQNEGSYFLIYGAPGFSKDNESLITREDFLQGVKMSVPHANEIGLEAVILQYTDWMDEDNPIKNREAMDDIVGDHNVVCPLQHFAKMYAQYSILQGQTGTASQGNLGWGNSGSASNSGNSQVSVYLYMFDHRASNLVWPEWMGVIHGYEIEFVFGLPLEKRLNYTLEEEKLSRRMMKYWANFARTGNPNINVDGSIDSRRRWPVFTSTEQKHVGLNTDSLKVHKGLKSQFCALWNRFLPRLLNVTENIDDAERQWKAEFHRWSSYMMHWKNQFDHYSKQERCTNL

Structure (SMILES) | cellular antioxidant protection against H2O2 (MCF-7 cells [2]) | inhibition at 100 µM (eqBuChE [3]) | IC50 (eqBuChE [3]) | Inhibition type (eqBuChE [4]) | Ki (eqBuChE [4]) | concentrations without toxicity (Artemia salina) | LC50 [5] | inhibition at 100 µM (eeAChE) | DPPH antioxidant activity ([6]; 100 μg/mL) | cytotoxic concentration [7] | Vmax app (eqBuChE [4]; inhibitor 17.5 µM) | Vmax app (eqBuChE [4]; inhibitor 35 µM) | other results
COc1ccc2c3c1O[C@H]1C[C@@H](O)C=C[C@@]31CCN(C)C2 [Galantamine, reference compound] | good antioxidant cellular protection | – | – | – | – | – | – | – | – | – | – | – | effect on cellular viability (MCF-7 cells [1]; concentrations tested 6.25-50 μM, MCF-7): did not reduce cellular viability
COc1cc(OC)c2c(=O)c(OCCCCn3cc(CN4C(=O)C(=O)c5ccccc54)nn3)c(-c3ccc(OC)c(OC)c3)oc2c1 [IIf, 1-((1-(4-((2-(3,4-Dimethoxyphenyl)-5,7-dimethoxy-4-oxo-4H-chromen-3-yl)oxy)butyl)-1H-1,2,3-triazol-4-yl)methyl)indoline-2,3-dione] | equally effective in the antioxidant protection | 100% | 11.2 µM | competitive inhibition | 6.2 µM | ≤ 10 µM | 34.6 µM | 24.3% | – | – | – | – | Vmax app (eqBuChE [4]; inhibitor 5 µM): 11.8 U.mg^−1; Vmax app (eqBuChE [4]; inhibitor 20 µM): 11.4 U.mg^−1; Vmax app (eqBuChE [4]; inhibitor 40 µM): 13.4 U.mg^−1; DPPH antioxidant activity ([6]; 3 to 200 μg/mL): no antioxidant activity
O=c1c(OCCCCn2cc(-c3ccccc3)nn2)c(-c2ccc(O)c(O)c2)oc2cc(O)cc(O)c12 [IVa, 2-(3,4-Dihydroxyphenyl)-5,7-dihydroxy-3-(4-(4-phenyl-1H-1,2,3-triazol-1-yl)butoxy)-4H-chromen-4-one] | – | 82.8% | 24.7 µM | – | – | – | – | 0% | potent antioxidant activity | > 10 µM | – | – | reduction of cellular viability (MCF-7 cells [1]; 6.25 μM, MCF-7, 2 h, without H2O2): 40%
O=c1c(OCCCCn2cc(C3CC3)nn2)c(-c2ccc(O)c(O)c2)oc2cc(O)cc(O)c12 [IVb, 3-(4-(4-Cyclopropyl-1H-1,2,3-triazol-1-yl)butoxy)-2-(3,4-dihydroxyphenyl)-5,7-dihydroxy-4H-chromen-4-one] | equally effective in the antioxidant protection | 90.5% | 32.4 µM | mixed type (non-competitive) | 30 µM | ≤ 10 µM | 10 to 100 µM | 5.21% | potent antioxidant activity | > 10 µM | 7.5 U.mg^−1 | 6.5 U.mg^−1 | Vmax app (eqBuChE [4]; inhibitor 70 µM): 4.5 U.mg^−1; cytotoxic concentration (MCF-7 cells [1]; human, 2 h): > 25 µM
CC(C)(O)c1cn(CCCCOc2c(-c3ccc(O)c(O)c3)oc3cc(O)cc(O)c3c2=O)nn1 [IVd, 2-(3,4-Dihydroxyphenyl)-5,7-dihydroxy-3-(4-(4-(2-hydroxypropan-2-yl)-1H-1,2,3-triazol-1-yl)butoxy)-4H-chromen-4-one] | equally effective in the antioxidant protection | 56.6% | 39 µM | competitive inhibition | 36 µM | – | > 100 µM | 3.65% | potent antioxidant activity | – | 9.6 U.mg^−1 | 9.0 U.mg^−1 | LC50 (Artemia salina; Artemia salina nauplii, read-out: LC50): ≥ 100 µM; EC50 at 2 h (in vitro): > 50 µM
